This test deals with T1, human CaMKIIδ (Homo sapiens, UniProt Q13557).
T1 construct: Full-length, glutathione-S-transferase(GST)-tagged, human CaMKIIδ was purchased from Carna Biosciences; purchased Carna Biosciences (CaMKIIδ); Wako Pure Chemical Industries (calmodulin) 02-111
Description: Evaluation of in vitro CaMKII inhibitory activity (binding assay, TR-FRET). Conditions: human CaMKIIδ. Summed up: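 Inhibitors, in eight concentrations of 4-fold dilution, were incubated 1 h at room temperature with a protein–fluorescent probe premix preformed 30 min on ice, containing calmodulin and terbium anti-GST antibody. Displacement read by TR-FRET in duplicate; IC50 by logistic fitting.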
(In general: Time-resolved FRET reads energy transfer from a long-lived donor to a nearby acceptor.)

Where [1] appears, read: in vitro CaMKII inhibitory activity (binding assay), read-out: Act.
Setting [2] is: TR-FRET binding assay, class symbols A/B/C, read-out: Act (CaMKII inhibitory activity, binding assay).

Molecules are shown by their SMILES. Read-outs that look alike come from different tables or passages of the source. Bounds are passed on as bounds.

Consider `C[C@@H](Cn1cnnn1)Oc1cccc(-c2ccc3ncc(-c4cccc(C(F)F)c4C#N)n3n2)c1` [Example 413, 2-(difluoromethyl)-6-[6-(3-{[(2S)-1-(1H-tetrazol-1-yl)propan-2-yl]oxy}phenyl)imidazo[1,2-b]pyridazin-3-yl]benzonitrile], for which, under setting [1], the IC50 is under 10 nM.

As for `C[C@@H](Cn1cnnn1)Oc1cccc(-c2ccc3ncc(-c4[nH]ccc(=O)c4C#N)n3n2)c1` [compound 301, 4-oxo-2-[6-(3-{[(2S)-1-(1H-tetrazol-1-yl)propan-2-yl]oxy}phenyl)imidazo[1,2-b]pyridazin-3-yl]-1,4-dihydropyridine-3-carbonitrile], the IC50 under setting [1] fell in the range of 10 to 100 nM.

Turning to `CCc1ccc(C#N)c(-c2cnc3ccc(-c4cccc(O[C@@H](C)Cn5cnnn5)c4)nn23)n1` [compound 371], under setting [1], the IC50 was under 10 nM.

As for `COc1ccnc(-c2cnc3ccc(-c4ccc(F)c(O[C@@H](CF)Cn5cnnn5)c4)nn23)c1C#N` [Example 475, 2-[6-(4-fluoro-3-{[(2R)-1-fluoro-3-(1H-tetrazol-1-yl)propan-2-yl]oxy}phenyl)imidazo[1,2-b]pyridazin-3-yl]-4-methoxypyridine-3-carbonitrile], the IC50 under setting [2] is under 10 nM.

Consider `C[C@@H](Cn1cnnn1)Oc1cc(-c2ccn3ncc(-c4cncc(C#N)c4)c3n2)ccc1F` [compound 156], for which the IC50 under setting [2] is under 10 nM.

Regarding `COc1cc(F)cc(-n2cnc3ccc(-c4cccc(O[C@@H](C)Cn5cnnn5)n4)nc32)c1C#N` [Example 393, 4-fluoro-2-methoxy-6-[5-(6-{[(2S)-1-(1H-tetrazol-1-yl)propan-2-yl]oxy}pyridin-2-yl)-3H-imidazo[4,5-b]pyridin-3-yl]benzonitrile], the IC50 under setting [1] was under 10 nM.

With `C[C@@H](Cn1cnnn1)Oc1cccc(-c2ccc3nnc(-c4ncccc4C#N)n3n2)c1` [compound 391], the IC50 under setting [1] is over 100 nM.

As for `C[C@@H](Cn1cnnn1)Oc1cc(-c2ccn3ncc(-c4cccc(F)c4C#N)c3n2)ccc1F` [compound 154], the IC50 under setting [2] was under 10 nM.

For the compound `C[C@@H](Cn1cnnn1)Oc1cc(-c2ccn3ncc(-c4ccn(CCN5CCOCC5)n4)c3n2)ccc1F` [compound 160], the IC50 under setting [2] is under 10 nM.

Take `C[C@@H](Cn1cnnn1)Oc1cccc(-c2ccc3ncc(-c4nc(F)c(F)cc4C#N)n3n2)c1` [compound 451]: the IC50 under setting [1] is under 10 nM.

For `COCCCNC(=O)c1cccc(-c2cnn3ccc(-c4ccc(F)c(O[C@@H](C)Cn5cnnn5)c4)nc23)c1` [compound 9], the IC50 under setting [2] was under 10 nM.

Consider `COc1cc(Cl)cc(-n2cnc3ccc(-c4cncc(O[C@@H](C)Cn5cnnn5)n4)nc32)c1C#N` [Example 448, 4-chloro-2-methoxy-6-[5-(6-{[(2S)-1-(1H-tetrazol-1-yl)propan-2-yl]oxy}pyrazin-2-yl)-3H-imidazo[4,5-b]pyridin-3-yl]benzonitrile], for which the IC50 under setting [1] was under 10 nM.

On to `C[C@@H](Cn1cncn1)Oc1cccc(-c2ccn3ncc(-c4cccs4)c3n2)c1` [Example 61, 1-[(2S)-2-{3-[3-(thiophen-2-yl)pyrazolo[1,5-a]pyrimidin-5-yl]phenoxy}propyl]-1H-1,2,4-triazole], for which, under setting [2], the IC50 is under 10 nM.

As to `C[C@@H](Cn1cnnn1)Oc1cccc(-c2ccc3ncc(-c4nccc(N5CCC5)c4C#N)n3n2)c1` [compound 370], under setting [1], the IC50 fell in the range of 10 to 100 nM.

In the case of `COc1ccccc1-c1cnn2ccc(-c3ccc(F)c(O[C@@H](C)Cn4cnnn4)c3)nc12` [compound 31], the IC50 under setting [2] is under 10 nM.

For `COC(=O)c1cccc(-n2cnc3ccc(-c4ccc(F)c(O[C@@H](C)Cn5cnnn5)c4)nc32)c1C#N` [compound 179], the IC50 under setting [2] lay in the range of 10 to 100 nM.

On to `COc1cc(F)c(C#N)c(-n2cnc3ccc(-c4cccc(O[C@@H](C)Cn5cnnn5)n4)nc32)c1` [compound 424], for which the IC50 under setting [1] was under 10 nM.

For `COc1ncc(Cl)cc1-c1cnc2ccc(-c3cccc(O[C@@H](C)Cn4cnnn4)c3)nn12` [compound 323], the IC50 under setting [1] was under 10 nM.

Regarding `COc1cccc(-c2cnn3ccc(-c4ccc(F)c(O[C@@H](C)Cn5cnnn5)c4)nc23)c1` [compound 32], the IC50 under setting [2] was under 10 nM.

Turning to `C[C@@H](Cn1cnnn1)Oc1cccc(-c2ccc3ncc(-c4ccc(F)cc4C#N)n3n2)n1` [compound 418], under setting [1], the IC50 lay in the range of 10 to 100 nM.

As to `C[C@@H](Cn1cnnn1)Oc1cccc(-c2ccc3ncc(-c4ncccc4C#N)n3n2)n1` [compound 458], under setting [1], the IC50 was over 100 nM.

Turning to `C[C@@H](Cn1cnnn1)Oc1cc(-c2ccc3ncc(-c4c(C#N)c(=O)ccn4CF)n3n2)ccc1F` [compound 436], the IC50 under setting [1] was 10 to 100 nM.

For `C[C@@H](Cn1cnnn1)Oc1cccc(-c2ccc3ncc(-c4cnccn4)n3n2)c1` [compound 283], the IC50 under setting [1] is under 10 nM.

For `C[C@@H](Cn1cnnn1)Oc1cc(-c2ccc3ncc(-c4nccc(OCF)c4C#N)n3n2)ccc1F` [Example 435, 2-[6-(4-fluoro-3-{[(2S)-1-(1H-tetrazol-1-yl)propan-2-yl]oxy}phenyl)imidazo[1,2-b]pyridazin-3-yl]-4-(fluoromethoxy)pyridine-3-carbonitrile], under setting [1], the IC50 was under 10 nM.

On to `C[C@@H](Cn1cnnn1)Oc1cc(-c2ccn3ncc(-c4cn(C)nc4C#N)c3n2)ccc1F` [compound 164], for which the IC50 under setting [2] is under 10 nM.

Turning to `C[C@@H](Cn1cnnn1)Oc1cccc(-c2ccc3ncc(-c4nccc(C(F)F)c4C#N)n3n2)n1` [compound 457], the IC50 under setting [1] lay within 10 to 100 nM.

As to `C[C@@H](Cn1cnnn1)Oc1cccc(-c2ccc3ncc(-c4cc(Cl)c[nH]c4=O)n3n2)c1` [compound 328], under setting [1], the IC50 is under 10 nM.

Turning to `CNC(=O)c1cccc(-c2cnn3ccc(-c4ccc(F)c(O[C@@H](C)Cn5cnnn5)c4)nc23)c1` [compound 35], the IC50 under setting [2] is under 10 nM.

In the case of `C[C@@H](Cn1cnnn1)Oc1cc(-c2ccn3ncc(-c4cncnc4)c3n2)ccc1F` [compound 22], the IC50 under setting [2] is under 10 nM.

Turning to `C[C@@H](Cn1cnnn1)Oc1cccc(-c2ccc3ncc(-c4cc(F)cn(CC(F)(F)F)c4=O)n3n2)c1` [compound 339], the IC50 under setting [1] was under 10 nM.

Turning to `COC(=O)c1cccc(-n2cnc3ccc(-c4ccc(F)c(O[C@@H](C)Cn5cnnn5)c4)nc32)n1` [compound 188], under setting [2], the IC50 is under 10 nM.

Turning to `C[C@@H](Cn1cnnn1)Oc1cccc(-c2ccc3ncn(-c4cc(F)cc(O)c4C#N)c3n2)n1` [Example 472, 4-fluoro-2-hydroxy-6-[5-(6-{[(2S)-1-(1H-tetrazol-1-yl)propan-2-yl]oxy}pyridin-2-yl)-3H-imidazo[4,5-b]pyridin-3-yl]benzonitrile], under setting [2], the IC50 was under 10 nM.

In the case of `C[C@@H](Cn1cnnn1)Oc1cccc(-c2ccc3ncc(-c4cc(F)c(F)cc4C#N)n3n2)n1` [compound 433], the IC50 under setting [1] was under 10 nM.

In the case of `CNc1ccc(C#N)c(-c2cnc3ccc(-c4cccc(O[C@@H](C)Cn5cnnn5)c4)nn23)n1` [compound 361], under setting [1], the IC50 is under 10 nM.

For `Cc1c(-c2cnc3ccc(-c4ccc(F)c(O[C@@H](C)Cn5cnnn5)c4)nn23)c(C(F)(F)F)nn1C` [compound 266], under setting [1], the IC50 was over 100 nM.

As for `C[C@@H](Cn1cnnn1)Oc1cccc(-c2ccc3ncc(-c4nccc(NCC(F)(F)F)c4C#N)n3n2)c1` [compound 369], the IC50 under setting [1] lay in the range of 10 to 100 nM.

As for `COc1cccc(-c2cnc3ccc(-c4ccc(F)c(O[C@@H](C)Cn5cnnn5)c4)nn23)c1C#N` [compound 197], the IC50 under setting [2] was under 10 nM.

As for `C[C@@H](Cn1cnnn1)Oc1cccc(-c2ccn3nc(F)c(-c4cc(F)ccc4C#N)c3n2)c1` [Example 379, 4-fluoro-2-[2-fluoro-5-(3-{[(2S)-1-(1H-tetrazol-1-yl)propan-2-yl]oxy}phenyl)pyrazolo[1,5-a]pyrimidin-3-yl]benzonitrile], the IC50 under setting [1] is under 10 nM.

As for `C[C@@H](Cn1cnnn1)Oc1cc(-c2ccc3ncn(-c4cnn(C(=O)OC(C)(C)C)c4)c3n2)ccc1F` [compound 118], the IC50 under setting [2] is under 10 nM.

Take `C[C@@H](Cn1cnnn1)Oc1cc(-c2ccn3ncc(-c4ccc(Cl)cc4)c3n2)ccc1F` [compound 135]: the IC50 under setting [2] lay in the range of 10 to 100 nM.

Consider `COc1cc(-c2cnc3ccc(-c4cccc(O[C@@H](C)Cn5cnnn5)n4)nn23)c(C#N)cn1` [compound 463], for which, under setting [1], the IC50 is under 10 nM.

In the case of `COCCOc1ccnc(-c2cnc3ccc(-c4cccc(O[C@@H](C)Cn5cnnn5)c4)nn23)c1C#N` [compound 469], the IC50 under setting [1] is under 10 nM.

With `COCCOCCOCCOc1cccc(-c2cnc3ccc(-c4ccc(F)c(O[C@@H](C)Cn5cnnn5)c4)nn23)c1C#N` [compound 212], under setting [2], the IC50 is under 10 nM.

For `C[C@@H](Cn1cnnn1)Oc1cccc(-c2ccn3ncc(-c4cccc(C(=O)Nc5ccccc5)c4)c3n2)c1` [compound 81], the IC50 under setting [2] is 10 to 100 nM.

In the case of `C[C@@H](Cn1cnnn1)Oc1cccc(-c2ccn3ncc(-c4cccc(C(=O)NC5CC(=O)N(C)C5)c4)c3n2)c1` (stereo partly drawn) [compound 97, N-(1-methyl-5-oxopyrrolidin-3-yl)-3-[5-(3-{[(2S)-1-(1H-tetrazol-1-yl)propan-2-yl]oxy}phenyl)pyrazolo[1,5-a]pyrimidin-3-yl]benzamide], the IC50 under setting [2] is under 10 nM.

Consider `C[C@@H](Cn1cnnn1)Oc1cccc(-c2ccc3ncc(-c4nccc(OCC(F)(F)F)c4C#N)n3n2)c1` [compound 344], for which, under setting [1], the IC50 was under 10 nM.

Take `C[C@@H](Cn1cnnn1)Oc1cccc(-c2ccn3ncc(-c4cccc(C(=O)NCCC5CCN(C)CC5)c4)c3n2)c1` [compound 76]: the IC50 under setting [2] was under 10 nM.

Turning to `C[C@@H](Cn1cnnn1)Oc1cc(-c2ccn3ncc(-c4ccccc4OC(F)(F)F)c3n2)ccc1F` [compound 45], the IC50 under setting [2] lay within 10 to 100 nM.

As for `C[C@@H](Cn1cnnn1)Oc1cccc(-c2ccc3ncc(-c4cccn(CCOCC(F)(F)F)c4=O)n3n2)c1` [compound 341], the IC50 under setting [1] was under 10 nM.

For the compound `C[C@@H](Cn1cnnn1)Oc1cc(-c2ccn3ncc(-c4cccc(F)c4C(N)=O)c3n2)ccc1F` [compound 155], the IC50 under setting [2] lay within 10 to 100 nM.

These data come from US12528816B2, “Substituted imidazo [1,2-b] pyridazines and [1, 2, 4] triazolo [ 4,3-b] pyridazines as camkii inhibitors” (Cardurion Pharmaceuticals, INC., priority 2020, dated 2026).
